Experimental data from patent publication US7074789B2, “Kinase inhibitors” (Amgen Inc., priority 1999, dated 2006).

Key:
Format in all cases: biochemical
PDGFRB = biological target: T1, PDGFRB (Homo sapiens, UniProt P09619); assay: Kinase inhibition assay (33P transfer), PDGFRB; details: read-out: PDGFRB-1
T1 construct: Kinases are expressed as either kinase domains or full length constructs; made in house

Itk = biological target: T2, Itk (Homo sapiens, UniProt Q08881); assay: Kinase inhibition assay (33P transfer), Itk; details: Table 3; read-out: Itk-1
T2 construct: Kinases are expressed as either kinase domains or full length constructs; made in house
T2 sequence (Q08881 1-620): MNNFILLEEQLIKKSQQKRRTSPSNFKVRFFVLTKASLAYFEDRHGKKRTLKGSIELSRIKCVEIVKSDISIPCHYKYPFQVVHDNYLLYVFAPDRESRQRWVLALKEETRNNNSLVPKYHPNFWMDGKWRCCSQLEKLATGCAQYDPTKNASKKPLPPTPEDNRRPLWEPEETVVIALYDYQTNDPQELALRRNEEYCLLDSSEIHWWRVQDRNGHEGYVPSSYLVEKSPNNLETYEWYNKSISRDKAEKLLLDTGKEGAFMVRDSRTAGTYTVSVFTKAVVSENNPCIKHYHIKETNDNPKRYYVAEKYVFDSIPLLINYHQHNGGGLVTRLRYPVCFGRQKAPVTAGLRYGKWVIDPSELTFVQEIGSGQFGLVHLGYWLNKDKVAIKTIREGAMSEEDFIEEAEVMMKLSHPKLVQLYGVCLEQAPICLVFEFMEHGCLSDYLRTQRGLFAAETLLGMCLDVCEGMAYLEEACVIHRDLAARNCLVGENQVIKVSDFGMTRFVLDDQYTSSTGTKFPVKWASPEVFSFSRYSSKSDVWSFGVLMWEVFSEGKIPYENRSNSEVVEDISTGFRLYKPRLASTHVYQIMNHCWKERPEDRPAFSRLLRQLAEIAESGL
Method in brief: (§1)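 Steps: coat wells with poly(Glu,Tyr) 4:1 or poly(Arg,Ser) 3:1; add purified kinase, [33P]ATP and inhibitor; incubate; wash with 0.5% phosphoric acid; add liquid scintillant; count. IC50 corresponds to half-maximal reduction of bound 33P.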

Lck = biological target: T3, Lck (Homo sapiens, UniProt P06239); assay: Kinase inhibition assay (33P transfer), Lck; details: Table 3; read-out: Lck-1
T3 construct: Kinases are expressed as either kinase domains or full length constructs; made in house
T3 sequence (P06239 whole entry, species assumed, the tested form may be a part): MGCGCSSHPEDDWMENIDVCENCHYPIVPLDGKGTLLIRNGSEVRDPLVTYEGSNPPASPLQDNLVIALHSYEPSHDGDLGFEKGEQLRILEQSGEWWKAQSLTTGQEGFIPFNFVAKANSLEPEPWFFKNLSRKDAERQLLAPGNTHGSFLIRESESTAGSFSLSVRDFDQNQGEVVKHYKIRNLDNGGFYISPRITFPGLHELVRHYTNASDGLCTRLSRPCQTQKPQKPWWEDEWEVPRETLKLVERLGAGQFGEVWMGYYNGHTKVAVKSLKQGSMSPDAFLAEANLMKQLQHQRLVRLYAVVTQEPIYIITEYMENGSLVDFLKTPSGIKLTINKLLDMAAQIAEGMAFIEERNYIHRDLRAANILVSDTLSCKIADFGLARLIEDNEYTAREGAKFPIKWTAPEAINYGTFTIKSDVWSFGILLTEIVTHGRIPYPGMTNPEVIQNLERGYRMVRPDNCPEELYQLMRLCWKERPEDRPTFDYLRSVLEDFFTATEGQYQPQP
Method in brief: (§2)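 Activity was read as 33P incorporation, counted by liquid scintillation after a 0.5% phosphoric acid wash, into poly(Glu,Tyr) 4:1 or poly(Arg,Ser) 3:1 substrates coated on plates. Enzymes were tagged (GST or polyHis) kinase domains or full-length proteins from bacterial or insect-cell expression, sometimes with regulatory polypeptides.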

Src = biological target: T4, Src (Homo sapiens, UniProt P12931); assay: Kinase inhibition assay (33P transfer), Src; details: Table 6, Src-1 kinase inhibition class
T4 construct: Kinases are expressed as either kinase domains or full length constructs; made in house
Method in brief: as §1

Tek = biological target: T5, Tek (Homo sapiens, UniProt Q02763); assay: Kinase inhibition assay (33P transfer), Tek; details: read-out: Tek-1
T5 construct: Kinases are expressed as either kinase domains or full length constructs; made in house
T5 sequence (Q02763 23-1124, species assumed): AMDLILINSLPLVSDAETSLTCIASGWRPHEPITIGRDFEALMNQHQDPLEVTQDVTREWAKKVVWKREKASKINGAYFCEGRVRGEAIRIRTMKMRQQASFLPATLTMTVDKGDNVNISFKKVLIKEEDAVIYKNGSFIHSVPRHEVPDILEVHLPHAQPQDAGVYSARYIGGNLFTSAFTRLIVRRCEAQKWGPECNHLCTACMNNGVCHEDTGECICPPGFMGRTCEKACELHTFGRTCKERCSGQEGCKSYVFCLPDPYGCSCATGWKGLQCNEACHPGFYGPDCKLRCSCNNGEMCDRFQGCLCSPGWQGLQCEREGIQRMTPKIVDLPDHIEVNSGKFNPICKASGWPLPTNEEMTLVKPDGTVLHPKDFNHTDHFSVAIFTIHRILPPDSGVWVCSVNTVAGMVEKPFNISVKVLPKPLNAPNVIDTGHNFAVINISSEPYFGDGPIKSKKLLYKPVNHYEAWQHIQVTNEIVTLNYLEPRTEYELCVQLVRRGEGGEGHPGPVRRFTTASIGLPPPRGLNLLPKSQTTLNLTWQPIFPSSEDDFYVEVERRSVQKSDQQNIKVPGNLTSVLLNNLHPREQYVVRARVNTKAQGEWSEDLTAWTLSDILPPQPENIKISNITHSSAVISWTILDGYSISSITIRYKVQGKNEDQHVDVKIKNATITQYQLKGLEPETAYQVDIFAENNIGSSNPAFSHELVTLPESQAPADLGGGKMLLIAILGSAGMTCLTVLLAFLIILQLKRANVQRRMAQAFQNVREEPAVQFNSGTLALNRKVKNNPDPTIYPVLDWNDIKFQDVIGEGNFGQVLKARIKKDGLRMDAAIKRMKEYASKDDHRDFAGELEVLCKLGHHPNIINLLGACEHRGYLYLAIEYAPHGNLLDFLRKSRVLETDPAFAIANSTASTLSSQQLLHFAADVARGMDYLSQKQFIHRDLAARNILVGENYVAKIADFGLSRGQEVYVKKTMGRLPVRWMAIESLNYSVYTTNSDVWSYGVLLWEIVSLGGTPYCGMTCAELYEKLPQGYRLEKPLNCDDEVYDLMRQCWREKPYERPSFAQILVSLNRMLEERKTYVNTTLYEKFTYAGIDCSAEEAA
Method in brief: as §1

Kdr = biological target: T6, Kdr (Homo sapiens, UniProt P35968); assay: Kinase inhibition assay (33P transfer), Kdr; details: Table 3; read-out: KDR-1
T6 construct: Kinases are expressed as either kinase domains or full length constructs; made in house
T6 sequence (P35968 20-1356, species assumed): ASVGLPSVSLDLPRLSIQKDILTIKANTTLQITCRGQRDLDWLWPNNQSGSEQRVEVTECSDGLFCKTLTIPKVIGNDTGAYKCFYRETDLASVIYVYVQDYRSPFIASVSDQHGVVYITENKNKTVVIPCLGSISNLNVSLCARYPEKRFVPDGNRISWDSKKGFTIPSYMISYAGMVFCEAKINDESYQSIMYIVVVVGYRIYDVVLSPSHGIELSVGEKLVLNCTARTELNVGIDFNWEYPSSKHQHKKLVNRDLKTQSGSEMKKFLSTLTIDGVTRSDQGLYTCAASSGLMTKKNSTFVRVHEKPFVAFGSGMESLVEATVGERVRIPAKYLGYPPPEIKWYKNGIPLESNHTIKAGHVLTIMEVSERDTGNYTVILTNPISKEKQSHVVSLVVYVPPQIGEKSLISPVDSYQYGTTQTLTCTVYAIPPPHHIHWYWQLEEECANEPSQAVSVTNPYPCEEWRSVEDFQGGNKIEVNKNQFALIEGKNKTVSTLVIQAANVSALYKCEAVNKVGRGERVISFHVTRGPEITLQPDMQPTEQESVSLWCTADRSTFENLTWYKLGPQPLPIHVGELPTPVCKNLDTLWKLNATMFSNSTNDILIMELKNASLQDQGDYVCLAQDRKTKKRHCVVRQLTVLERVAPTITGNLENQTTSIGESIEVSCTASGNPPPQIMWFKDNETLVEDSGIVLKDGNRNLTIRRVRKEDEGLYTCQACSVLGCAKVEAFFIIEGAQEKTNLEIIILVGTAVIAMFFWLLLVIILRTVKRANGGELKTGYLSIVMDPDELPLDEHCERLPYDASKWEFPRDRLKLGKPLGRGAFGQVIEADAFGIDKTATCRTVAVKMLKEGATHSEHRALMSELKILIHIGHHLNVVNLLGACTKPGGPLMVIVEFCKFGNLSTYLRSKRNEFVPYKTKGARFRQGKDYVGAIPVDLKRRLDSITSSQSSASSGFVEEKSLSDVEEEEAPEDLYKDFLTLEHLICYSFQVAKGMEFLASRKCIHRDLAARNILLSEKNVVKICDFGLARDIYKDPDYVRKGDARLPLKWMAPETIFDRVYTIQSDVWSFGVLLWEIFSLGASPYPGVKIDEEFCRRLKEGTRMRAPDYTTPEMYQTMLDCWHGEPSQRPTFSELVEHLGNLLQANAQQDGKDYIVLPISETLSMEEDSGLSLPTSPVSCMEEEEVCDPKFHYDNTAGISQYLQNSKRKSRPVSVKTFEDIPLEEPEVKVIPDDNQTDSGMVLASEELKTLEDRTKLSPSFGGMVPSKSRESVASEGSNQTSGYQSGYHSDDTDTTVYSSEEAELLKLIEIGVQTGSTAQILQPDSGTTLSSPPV
Method in brief: as §2

Fyn = biological target: T7, Fyn (Homo sapiens, UniProt P06241); assay: Kinase inhibition assay (33P transfer), Fyn; details: read-out: Fyn-1
T7 construct: Kinases are expressed as either kinase domains or full length constructs; made in house
Method in brief: as §1

FGFR1 = biological target: T8, FGFR1 (Homo sapiens, UniProt P11362); assay: Kinase inhibition assay (33P transfer), FGFR1; details: read-out: FGFR1-1
T8 construct: Kinases are expressed as either kinase domains or full length constructs; made in house
T8 sequence (P11362 22-822, species assumed): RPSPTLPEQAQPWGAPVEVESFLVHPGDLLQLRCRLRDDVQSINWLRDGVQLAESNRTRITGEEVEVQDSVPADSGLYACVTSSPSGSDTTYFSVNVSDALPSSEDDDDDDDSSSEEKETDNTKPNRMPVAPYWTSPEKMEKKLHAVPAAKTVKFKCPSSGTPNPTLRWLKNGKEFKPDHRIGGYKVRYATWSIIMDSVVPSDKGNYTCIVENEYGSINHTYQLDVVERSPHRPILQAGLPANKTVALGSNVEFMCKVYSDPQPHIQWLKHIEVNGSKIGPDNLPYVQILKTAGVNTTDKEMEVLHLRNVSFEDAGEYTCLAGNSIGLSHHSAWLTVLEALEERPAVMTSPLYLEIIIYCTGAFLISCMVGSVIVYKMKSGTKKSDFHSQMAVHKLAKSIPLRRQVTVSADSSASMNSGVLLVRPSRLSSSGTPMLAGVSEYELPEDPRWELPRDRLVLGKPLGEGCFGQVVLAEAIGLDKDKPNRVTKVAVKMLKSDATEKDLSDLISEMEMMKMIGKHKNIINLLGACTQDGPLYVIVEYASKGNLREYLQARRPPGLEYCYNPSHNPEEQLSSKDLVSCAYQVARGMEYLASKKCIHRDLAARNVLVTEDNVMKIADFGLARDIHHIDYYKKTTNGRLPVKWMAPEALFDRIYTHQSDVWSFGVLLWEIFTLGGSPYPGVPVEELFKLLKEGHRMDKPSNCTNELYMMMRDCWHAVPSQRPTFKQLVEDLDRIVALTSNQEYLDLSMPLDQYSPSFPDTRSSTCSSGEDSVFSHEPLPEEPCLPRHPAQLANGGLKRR

Flt-1 = biological target: T9, Flt-1 (Homo sapiens, UniProt P17948); assay: Kinase inhibition assay (33P transfer), Flt-1
T9 construct: Kinases are expressed as either kinase domains or full length constructs; made in house
Method in brief: as §1

Zap-70 = biological target: T10, Zap-70 (Homo sapiens, UniProt P43403); assay: Kinase inhibition assay (33P transfer), Zap-70; details: Table 3; read-out: Zap-1
T10 construct: Kinases are expressed as either kinase domains or full length constructs; made in house
T10 sequence (P43403 1-619): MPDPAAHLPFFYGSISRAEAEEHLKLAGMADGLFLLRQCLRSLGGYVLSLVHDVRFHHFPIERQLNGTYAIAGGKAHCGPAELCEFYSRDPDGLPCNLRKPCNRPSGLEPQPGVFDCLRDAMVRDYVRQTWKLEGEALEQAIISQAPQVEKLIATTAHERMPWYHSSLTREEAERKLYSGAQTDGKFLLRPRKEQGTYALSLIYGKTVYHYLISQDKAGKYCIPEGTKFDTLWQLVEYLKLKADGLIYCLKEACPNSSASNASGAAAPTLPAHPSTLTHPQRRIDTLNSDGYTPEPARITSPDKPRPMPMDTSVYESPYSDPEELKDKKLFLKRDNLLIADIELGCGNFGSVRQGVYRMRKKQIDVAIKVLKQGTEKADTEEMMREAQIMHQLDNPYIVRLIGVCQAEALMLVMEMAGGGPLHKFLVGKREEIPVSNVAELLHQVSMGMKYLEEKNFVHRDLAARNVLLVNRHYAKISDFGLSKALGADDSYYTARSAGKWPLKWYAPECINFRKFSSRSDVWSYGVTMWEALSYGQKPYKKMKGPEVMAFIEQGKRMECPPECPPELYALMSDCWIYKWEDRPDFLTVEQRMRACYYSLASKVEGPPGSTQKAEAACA
Method in brief: as §2

Hck-1 = biological target: T11, Hck-1 (Homo sapiens, UniProt P08631); assay: Kinase inhibition assay (33P transfer), Hck; details: Table 6, Hck-1 kinase inhibition class
T11 construct: Kinases are expressed as either kinase domains or full length constructs; made in house

EGFR = biological target: T12, EGFR (Homo sapiens, UniProt P00533); assay: Kinase inhibition assay (33P transfer), EGFR; details: Table 2, kinase inhibition class; read-out: EGFR-1
T12 construct: Kinases are expressed as either kinase domains or full length constructs; made in house
T12 sequence (P00533 25-1210, species assumed): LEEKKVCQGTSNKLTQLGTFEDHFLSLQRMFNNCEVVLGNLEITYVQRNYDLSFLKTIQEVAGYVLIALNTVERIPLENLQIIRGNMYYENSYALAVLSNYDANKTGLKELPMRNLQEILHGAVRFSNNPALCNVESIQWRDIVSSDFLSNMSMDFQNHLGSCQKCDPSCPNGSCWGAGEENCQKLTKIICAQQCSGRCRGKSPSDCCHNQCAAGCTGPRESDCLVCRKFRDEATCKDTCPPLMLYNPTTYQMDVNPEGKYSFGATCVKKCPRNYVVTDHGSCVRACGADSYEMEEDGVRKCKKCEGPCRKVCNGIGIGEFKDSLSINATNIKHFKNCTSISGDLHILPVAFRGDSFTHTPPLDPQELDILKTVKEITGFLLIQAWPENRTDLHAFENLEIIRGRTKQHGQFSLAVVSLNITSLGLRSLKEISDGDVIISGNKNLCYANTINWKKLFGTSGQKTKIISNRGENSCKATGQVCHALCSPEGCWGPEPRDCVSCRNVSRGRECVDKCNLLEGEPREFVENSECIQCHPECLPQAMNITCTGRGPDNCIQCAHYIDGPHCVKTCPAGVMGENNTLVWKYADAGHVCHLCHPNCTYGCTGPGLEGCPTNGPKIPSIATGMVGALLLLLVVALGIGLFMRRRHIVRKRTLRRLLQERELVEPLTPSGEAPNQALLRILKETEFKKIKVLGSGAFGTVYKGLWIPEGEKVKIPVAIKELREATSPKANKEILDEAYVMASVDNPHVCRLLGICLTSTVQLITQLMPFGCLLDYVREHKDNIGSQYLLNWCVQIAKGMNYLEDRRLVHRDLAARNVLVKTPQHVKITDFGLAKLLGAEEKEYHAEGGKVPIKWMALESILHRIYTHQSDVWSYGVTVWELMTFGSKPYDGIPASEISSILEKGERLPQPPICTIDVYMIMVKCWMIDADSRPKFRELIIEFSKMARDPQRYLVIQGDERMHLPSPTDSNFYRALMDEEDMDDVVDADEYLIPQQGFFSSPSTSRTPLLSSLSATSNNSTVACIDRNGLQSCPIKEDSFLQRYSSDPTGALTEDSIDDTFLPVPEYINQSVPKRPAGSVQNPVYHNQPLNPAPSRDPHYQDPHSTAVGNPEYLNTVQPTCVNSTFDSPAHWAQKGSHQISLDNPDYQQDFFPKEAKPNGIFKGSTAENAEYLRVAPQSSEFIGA
Method in brief: as §1

SMILES | IC50 (PDGFRB) | IC50 (Itk) | IC50 (Lck) | IC50 (Src) | IC50 (Tek) | IC50 (Kdr) | IC50 (Fyn) | IC50 (FGFR1) | IC50 (Flt-1) | IC50 (Zap-70) | IC50 (Hck-1) | IC50 (EGFR)
COc1cc(Nc2ncnc(Nc3ccc4cn[nH]c4c3)n2)cc(OC)c1OC [Compound 70] | < 1.02 µM | 8.9 to 11.4 µM | 1.02 to 6.1 µM | < 1.02 µM | > 11.4 µM | < 1.02 µM | > 11.4 µM | 1.02 to 6.1 µM | < 1.02 µM | > 11.4 µM | > 11.4 µM | 1.02 to 6.1 µM
COc1cc(Nc2ncnc(Nc3cccc(Br)c3)n2)cc(OC)c1OC [Compound 75] | > 10.4 µM | > 10.4 µM | 0.925 to 5.55 µM | 0.925 to 5.55 µM | > 10.4 µM | 0.925 to 5.55 µM | 0.925 to 5.55 µM | 8.1 to 10.4 µM | > 10.4 µM | 8.1 to 10.4 µM | > 10.4 µM | < 0.925 µM
COc1cc(Nc2ncnc(Nc3ccc(O)cc3Cl)n2)cc(OC)c1OC [Compound 77] | < 0.991 µM | 8.67 to 11.1 µM | 0.991 to 5.94 µM | 0.991 to 5.94 µM | > 11.1 µM | < 0.991 µM | 0.991 to 5.94 µM | 0.991 to 5.94 µM | 0.991 to 5.94 µM | > 11.1 µM | > 11.1 µM | 0.991 to 5.94 µM
COc1cc(Nc2ncnc(Nc3cccc(O)c3)n2)cc(OC)c1OC [Compound 78] | < 1.08 µM | 1.08 to 6.5 µM | 1.08 to 6.5 µM | < 1.08 µM | > 12.2 µM | < 1.08 µM | < 1.08 µM | < 1.08 µM | < 1.08 µM | > 12.2 µM | 1.08 to 6.5 µM | < 1.08 µM
COc1cc(Nc2ncnc(Nc3ccc4[nH]ncc4c3)n2)cc(OC)c1OC [Compound 79] | 1.02 to 6.1 µM | < 1.02 µM | < 1.02 µM | < 1.02 µM | > 11.4 µM | < 1.02 µM | 1.02 to 6.1 µM | 6.1 to 8.9 µM | 1.02 to 6.1 µM | > 11.4 µM | > 11.4 µM | < 1.02 µM
COc1cc(Nc2ncnc(Nc3ccc(C)c(O)c3)n2)cc(OC)c1OC [Compound 83] | < 1.04 µM | 1.04 to 6.26 µM | < 1.04 µM | < 1.04 µM | 9.13 to 11.7 µM | < 1.04 µM | < 1.04 µM | < 1.04 µM | < 1.04 µM | > 11.7 µM | 1.04 to 6.26 µM | < 1.04 µM
COc1cc(Nc2ncnc(Nc3ccc(O)cc3)n2)cc(OC)c1OC [Compound 85] | < 1.08 µM | 1.08 to 6.5 µM | < 1.08 µM | < 1.08 µM | > 12.2 µM | < 1.08 µM | < 1.08 µM | < 1.08 µM | < 1.08 µM | > 12.2 µM | > 12.2 µM | 1.08 to 6.5 µM
COc1cc(Nc2ncnc(Nc3cc(OC)c(OC)c(OC)c3)n2)cc(OC)c1 [Compound 86] | 0.968 to 5.81 µM | > 10.9 µM | 0.968 to 5.81 µM | 0.968 to 5.81 µM | > 10.9 µM | < 0.968 µM | 8.47 to 10.9 µM | > 10.9 µM | > 10.9 µM | > 10.9 µM | > 10.9 µM | > 10.9 µM
COc1cccc(Nc2ncnc(Nc3cc(OC)c(OC)c(OC)c3)n2)c1 [Compound 87] | < 1.04 µM | > 11.7 µM | 1.04 to 6.26 µM | 1.04 to 6.26 µM | > 11.7 µM | 1.04 to 6.26 µM | 1.04 to 6.26 µM | 6.26 to 9.13 µM | 9.13 to 11.7 µM | 9.13 to 11.7 µM | > 11.7 µM | 1.04 to 6.26 µM
COc1ccc(Nc2ncnc(Nc3cc(OC)c(OC)c(OC)c3)n2)cc1 [Compound 89] | < 1.04 µM | > 11.7 µM | 1.04 to 6.26 µM | 6.26 to 9.13 µM | > 11.7 µM | < 1.04 µM | 1.04 to 6.26 µM | > 11.7 µM | < 1.04 µM | > 11.7 µM | > 11.7 µM | 1.04 to 6.26 µM
COc1ccccc1Nc1ncnc(Nc2cc(OC)c(OC)c(OC)c2)n1 [Compound 90] | < 1.04 µM | 9.13 to 11.7 µM | 1.04 to 6.26 µM | 1.04 to 6.26 µM | > 11.7 µM | < 1.04 µM | < 1.04 µM | 1.04 to 6.26 µM | 1.04 to 6.26 µM | > 11.7 µM | 1.04 to 6.26 µM | 1.04 to 6.26 µM
COc1cc(Nc2ncnc(Nc3ccccc3)n2)cc(OC)c1OC [Compound 91] | < 1.13 µM | > 12.7 µM | 1.13 to 6.79 µM | 1.13 to 6.79 µM | > 12.7 µM | 1.13 to 6.79 µM | < 1.13 µM | 6.79 to 9.9 µM | < 1.13 µM | > 12.7 µM | > 12.7 µM | 1.13 to 6.79 µM
COc1cc(Nc2ncnc(Nc3ccc(N)cc3)n2)cc(OC)c1OC [Compound 92] | 1.09 to 6.51 µM | > 12.2 µM | > 12.2 µM | 9.5 to 12.2 µM | 6.51 to 9.5 µM | 1.09 to 6.51 µM | > 12.2 µM | 6.51 to 9.5 µM | 6.51 to 9.5 µM | 9.5 to 12.2 µM | > 12.2 µM | 1.09 to 6.51 µM
COc1cc(Nc2ncnc(Nc3cc(C)c(O)cc3C)n2)cc(OC)c1OC [Compound 94] | 1.01 to 6.04 µM | > 11.3 µM | < 1.01 µM | 1.01 to 6.04 µM | > 11.3 µM | < 1.01 µM | < 1.01 µM | > 11.3 µM | 8.81 to 11.3 µM | > 11.3 µM | > 11.3 µM | < 1.01 µM
COc1cc(Nc2ncnc(Nc3ccc4ccccc4c3)n2)cc(OC)c1OC [Compound 96] | 0.991 to 5.95 µM | > 11.2 µM | 0.991 to 5.95 µM | 5.95 to 8.68 µM | > 11.2 µM | 0.991 to 5.95 µM | 8.68 to 11.2 µM | > 11.2 µM | 8.68 to 11.2 µM | 8.68 to 11.2 µM | 8.68 to 11.2 µM | 0.991 to 5.95 µM
COc1cc(Nc2ncnc(Nc3cccc4cccnc34)n2)cc(OC)c1OC [Compound 97] | < 0.989 µM | > 11.1 µM | 8.65 to 11.1 µM | > 11.1 µM | > 11.1 µM | < 0.989 µM | 5.93 to 8.65 µM | 5.93 to 8.65 µM | 5.93 to 8.65 µM | > 11.1 µM | > 11.1 µM | > 11.1 µM
COc1cc(Nc2ncnc(Nc3cccc4ccccc34)n2)cc(OC)c1OC [Compound 98] | > 11.2 µM | > 11.2 µM | < 0.991 µM | > 11.2 µM | > 11.2 µM | < 0.991 µM | 0.991 to 5.95 µM | 5.95 to 8.68 µM | > 11.2 µM | > 11.2 µM | > 11.2 µM | < 0.991 µM
